“Also recorded” adds a separate entry of the source. Marks after values point to notes of the source that are not given here.
Tests used:
SUR-1−/− islets [1] = assay: Insulin secretion in static incubations of isolated islets; assay type: cell-based, mouse
wild-type littermates [2] = assay: Fasting blood glucose during continuous subcutaneous exendin-(9-39) infusion; assay type: in vivo, mouse; conditions: wild-type mice, 150 pmol/kg/min
Description: (§1) SUR-1^−/− mice were kindly provided by Dr. Mark A. Magnuson. The generation and genotyping of SUR-1^−/− mice were previously described (8). Mice are maintained in a C57B1/6 genetic background. Twelve to eighteen week SUR-1^−/− and wild-type littermate control mice were used in all experiments. Mice were maintained on a 12:12-h light-dark cycle and were fed a standard rodent chow diet. All procedures were approved and carried out according to the University of Pennsylvania Institutional Animal Care and Use Committee Guidelines. Alzet mini-osmotic pumps (model 2002; Alza, Palo Alto, Calif.) were implanted subcutaneously to deliver exendin-(9-39) (Bachem Bioscience, King of Prussia, Pa.) at a rate of 150 pmol/kg/min or vehicle (0.9% NaCl/1% BSA) for 2 weeks. For determination of fasting blood glucose levels mice were fasted for 12-16 hours. Oral glucose tolerance testing was carried after a 12-16 hour fast by administering 2 g/kg of dextrose by oral gavage (feeding needles; Popper and Sons, Inc., Hyde Park, N.Y.). For insulin tolerance testing mice received 0.5 units/kg of insulin intraperitoneally after a 4 hour fast. Blood glucose levels were measured using a hand-held glucose meter (FreeStyle; TheraSense, Alameda, Calif.). Insulin and glucagon were measured by ELISA (Mouse Endocrine Immunoassay Panel; Linco Research, Inc., St. Charles, Mo.). Twelve-18 week old male SUR-1^−/− and wildtype littermates underwent a baseline evaluation including fasting blood glucose measurements and oral glucose tolerance testing, followed by randomization to treatment with exendin-(9-39) (150 pmol/kg/min) or vehicle (0.9% NaCl, 1% BSA). Fasting blood glucose levels were determined after an overnight fast on days 3 and 7 of the infusion. In addition, oral glucose tolerance and insulin sensitivity were evaluated during treatment. […] After an oral load of glucose, SUR-1^−/− mice were glucose intolerant when compared to littermate wild-type controls (p<0.0001, repeated measures ANOVA) (FIG. 1C). The SUR-1^−/− mice have a significant impairment of insulin secretion in response to an oral glucose load (wildtype vs. SUR-1^−/−: p=0.02, repeated measures ANOVA) (FIG. 1D). Exendin-(9-39) was administered via an Azlet miniosmotic subcutaneous pump at a continuous infusion rate of 150 pmol/kg/min for 2 weeks. This dose was chosen based on results of a pilot study evaluating different doses previously shown to have an effect in normal humans and mice.

SUR-1−/− mice [3] = assay: as above; assay type: in vivo, mouse; conditions: for Fasting blood glucose levels: 150 pmol/kg/min s.c. pump, overnight fast
Description: as §1

SUR-1−/− islets [4] = assay: Islet perifusion, fuel-induced insulin secretion; assay type: cell-based, mouse; conditions: perifused SUR-1−/− islets
Description: Islets were isolated by collagenase digestion and cultured for 3 days in RPMI 1640 medium containing 10 mM glucose. The culture medium was supplemented with 10% fetal bovine serum, 2 mM glutamine, 100 units/mL penicillin, and 50 μg/mL streptomycin. Islets were incubated at 37° C. in a 5% CO2, 95% air-humidified incubator. Batches of 100 cultured mouse islets were loaded onto a nylon filter in a chamber and perifused with Krebs-Ringer bicarbonate buffer (115 mM NaCl, 24 mM NaHCO3, 5 mM KCl, 1 mM MgCl2, 2.5 mM CaCl2, 10 mM HEPES, pH 7.4) with 0.25% bovine serum albumin at a flow rate of 2 mL/min. Perifusate solutions were gassed with 95% O2, 5% CO2 and maintained at 37° C. Islets were stimulated with a ramp of amino acids. The physiologic mixture of 19 amino acids when used at a maximum concentration of 12 mM (about 3 times physiological concentration) had the following composition (in mM): glutamine 2, alanine 1.25, arginine 0.53, aspartate 0.11, citrulline 0.27, glutamate 0.35, glycine 0.85, histidine 0.22, isoleucine 0.27, leucine 0.46, lysine 1.06, methionine 0.14, ornithine 0.20, phenylalanine 0.23, proline 1, serine 1.62, threonine 0.77, tryptophan 0.21, valine 0.57. Samples were collected every minute for insulin assays. Insulin was measured by radioimmunoassay (Linco Research Inc., St. Charles, Mo.).

SUR-1−/− islets [5] = assay: Cytosolic free Ca2+ measurement (Fura-2); assay type: cell-based, mouse; conditions: for Amino acid-stimulated rise in intracellular calcium: SUR-1−/− islets, amino acids 4 mM (FIG. 6)
Description: Mouse islets were isolated and cultured on poly-[…] coated glass coverslips under the same conditions as described above. The perifusion procedure and cytosolic-free Ca2+ ([Ca2+]i) measurement were described previously (24). In brief, the coverslip with attached islets was incubated with 15 μM Fura-2 acetoxymethylester (Molecular Probes, Eugene, Oreg.) in Krebs-Ringer bicarbonate buffer with 5 mM glucose for 35 min at 37° C. Islets were then perifused with Krebs-Ringer bicarbonate buffer with 0.25% bovine serum albumin at 37° C. at a flow rate of 2mL/min, while various agents were applied. [Ca2+]i was measured with a dual wavelength fluorescence microscope as previously described.

[6] = tested on: SUR-1−/− and wild-type mice; assay: Insulin tolerance test (insulin sensitivity); assay type: in vivo, mouse; conditions: insulin 0.5 units/kg i.p. after 4 hour fast, any of the treatment groups (FIG. 4B)
Description: Alzet mini-osmotic pumps (model 2002; Alza, Palo Alto, Calif.) were implanted subcutaneously to deliver exendin-(9-39) (Bachem Bioscience, King of Prussia, Pa.) at a rate of 150 pmol/kg/min or vehicle (0.9% NaCl/1% BSA) for 2 weeks. For determination of fasting blood glucose levels mice were fasted for 12-16 hours. Oral glucose tolerance testing was carried after a 12-16 hour fast by administering 2 g/kg of dextrose by oral gavage (feeding needles; Popper and Sons, Inc., Hyde Park, N.Y.). For insulin tolerance testing mice received 0.5 units/kg of insulin intraperitoneally after a 4 hour fast. Blood glucose levels were measured using a hand-held glucose meter (FreeStyle; TheraSense, Alameda, Calif.). Insulin and glucagon were measured by ELISA (Mouse Endocrine Immunoassay Panel; Linco Research, Inc., St. Charles, Mo.). Twelve-18 week old male SUR-1^−/− and wildtype littermates underwent a baseline evaluation including fasting blood glucose measurements and oral glucose tolerance testing, followed by randomization to treatment with exendin-(9-39) (150 pmol/kg/min) or vehicle (0.9% NaCl, 1% BSA). Fasting blood glucose levels were determined after an overnight fast on days 3 and 7 of the infusion. In addition, oral glucose tolerance and insulin sensitivity were evaluated during treatment. […]

SUR-1−/− islets [7] = assay: cAMP content determination in static incubations of isolated islets; assay type: cell-based, mouse
Description: Islets were isolated as above, hand-picked and cultured for three days. Cultured islets were preincubated in glucose free Krebs-Ringer bicarbonate buffer for 60 min, 100 nM exendin-(9-39) was added 30 min into the preincubation period. Then, islets were exposed to different treatments for an additional 30 min in the presence of 0.1 mM isobutyl-methylzanthine (IBMX). After incubation, islets were washed 2 times by cold glucose-free Hank's buffer. cAMP was measured in islet lysates by ELISA (GE/Amersham Biosciences, Piscataway, N.J.).

wild-type littermates [8] = assay: Oral glucose tolerance test; assay type: in vivo, mouse; conditions: oral glucose 2 g/kg, during treatment (FIG. 4A)
Description: as §1, with “Alzet” for “SUR-1^−/− mice were kindly provided by Dr. Mark A. Magnuson. The generation and genotyping of SUR-1^−/− mice were previously described (8). Mice are maintained in a C57B1/6 genetic background. Twelve to eighteen week SUR-1^−/− and wild-type littermate control mice were used in all experiments. Mice were maintained on a 12:12-h light-dark cycle and were fed a standard rodent chow diet. All procedures were approved and carried out according to the University of Pennsylvania Institutional Animal Care and Use Committee Guidelines. Alzet”

SUR-1−/− mice [9] = assay: Oral glucose tolerance test; assay type: in vivo, mouse
Description: as §1, with “Alzet” for “SUR-1^−/− mice were kindly provided by Dr. Mark A. Magnuson. The generation and genotyping of SUR-1^−/− mice were previously described (8). Mice are maintained in a C57B1/6 genetic background. Twelve to eighteen week SUR-1^−/− and wild-type littermate control mice were used in all experiments. Mice were maintained on a 12:12-h light-dark cycle and were fed a standard rodent chow diet. All procedures were approved and carried out according to the University of Pennsylvania Institutional Animal Care and Use Committee Guidelines. Alzet”

SUR-1−/− mice [10] = assay: Fasting hormonal profile (insulin, glucagon, insulin/glucose ratio); assay type: in vivo, mouse
Description: Alzet mini-osmotic pumps (model 2002; Alza, Palo Alto, Calif.) were implanted subcutaneously to deliver exendin-(9-39) (Bachem Bioscience, King of Prussia, Pa.) at a rate of 150 pmol/kg/min or vehicle (0.9% NaCl/1% BSA) for 2 weeks. For determination of fasting blood glucose levels mice were fasted for 12-16 hours. Oral glucose tolerance testing was carried after a 12-16 hour fast by administering 2 g/kg of dextrose by oral gavage (feeding needles; Popper and Sons, Inc., Hyde Park, N.Y.). For insulin tolerance testing mice received 0.5 units/kg of insulin intraperitoneally after a 4 hour fast. Blood glucose levels were measured using a hand-held glucose meter (FreeStyle; TheraSense, Alameda, Calif.). Insulin and glucagon were measured by ELISA (Mouse Endocrine Immunoassay Panel; Linco Research, Inc., St. Charles, Mo.).

[11] = during treatment, SUR-1−/− and wild-type (FIG. 3A)

Exendin (9-39) [Exendin-(9-39)]
Insulin Secretion (SUR-1−/− islets [1]; 100 nM exendin-(9-39) + 4 mM AAM (amino acid-stimulated), AAM alone 389 ± 17): 219 ± 14 ng/100 islets/30 min
Insulin Secretion (SUR-1−/− islets [1]; 100 nM exendin-(9-39) + 4 mM AAM (amino acid-stimulated), AAM alone 389 ± 17, listed as exendin-(9-39)): 219±14 ng/100 islets/30 min
Insulin Secretion (SUR-1−/− islets [1]; basal, 100 nM exendin-(9-39), baseline 221 ± 22): 126 ± 12^a ng/100 islets/30 min
Insulin Secretion (SUR-1−/− islets [1]; basal, 100 nM exendin-(9-39), baseline 221 ± 22, listed as exendin-(9-39)): 126±12 ng/100 islets/30 min
Fasting blood glucose levels vs. vehicle-treated wild type controls (wild-type littermates [2]): not different
Fasting blood glucose levels (SUR-1−/− mice [3]; day 3, mean±SEM): 82.2 ± 6.3 mg/dL
Fasting blood glucose levels (SUR-1−/− mice [3]; day 7, mean±SEM): 82 ± 4.7 mg/dL
Effect on fasting blood glucose levels (in words) (SUR-1−/− mice [3]; 12-16 hour fast, day 7 (FIG. 2)): normalized
Insulin response to KCl, presence vs. absence of exendin-(9-39) (SUR-1−/− islets [4]; 100 nM exendin-(9-39)): similar
Insulin release in response to ramp of amino acid mixture (SUR-1−/− islets [4]; amino acids 0-12 mM, 100 nM exendin-(9-39) (FIG. 5)): blocked
Basal intracellular calcium (SUR-1−/− islets [5]; SUR-1−/− islets (FIG. 6)): did not affect
Amino acid-stimulated rise in intracellular calcium (SUR-1−/− islets [5]): no effect
Amino acid-stimulated rise in intracellular calcium (SUR-1−/− islets [5]; listed as exendin-(9-39)): did not impact
Peripheral insulin sensitivity [6]: did not impact; also recorded: did not influence
cAMP Content (SUR-1−/− islets [7]; 100 nM exendin-(9-39) + 4 mM AAM (amino acid-stimulated)): 52.5 ± 9.4^c pmol/100 islets
cAMP Content (SUR-1−/− islets [7]; 100 nM exendin-(9-39) + 4 mM AAM (amino acid-stimulated), listed as exendin-(9-39)): 20.9±4.4 pmol/100 islets
cAMP Content (SUR-1−/− islets [7]; basal, 100 nM exendin-(9-39), no exogenous GLP-1, glucose free KRBB, baseline 40.1 ± 4.2): 20.5 ± 2.3^a pmol/100 islets
cAMP Content (SUR-1−/− islets [7]; basal, 100 nM exendin-(9-39), no exogenous GLP-1, glucose free KRBB, baseline 40.1 ± 4.2, listed as exendin-(9-39)): 20.5±2.3 pmol/100 islets
Glucose tolerance (wild-type littermates [8]): no effect
Glucose tolerance (SUR-1−/− mice [9]; oral glucose 2 g/kg, during treatment (FIG. 4A)): did not significantly impair; also recorded: did not influence
Return to baseline blood glucose levels (SUR-1−/− mice [9]; oral glucose tolerance test, 120 minute time point): minor delay
Insulin/glucose ratio (SUR-1−/− mice [10]; SUR-1−/− mice, WT vs. SUR-1−/− Ex-(9-39) p=0.32 (FIG. 3B)): normalized
Fasting glucagon levels among treatment groups (SUR-1−/− mice [10]; [11]): not different
Fasting insulin levels among treatment groups (SUR-1−/− mice [10]; [11]): not different
